Assays:
[1] = system: T47D (PI3Kα-H1047R) cell line; assay: HTRF phospho-AKT(S473) cell assay in T47D cells; type: cell-based, human; settings: Homo sapiens; T47D (PI3Kα-H1047R) cells, HTRF phospho-AKT(S473), 2 hours compound incubation
In short: (§1)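 Cells plated overnight (T47D in RPMI/10% FBS/0.2 units/mL insulin; SKBR3 in McCoy's 5A/10% FBS), then given 12-point 1:3 compound series (top 5 μM T47D, 10 μM SKBR3; ≤0.5% DMSO) for 2 h at 37° C. SKBR3 stimulated with 70 ng/ml PDGF-BB for final 15 min. Lysate pAKT(S473) by HTRF; IC50 calculated.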

[2] = system: SKBR3 (PI3Kα-Wild Type) cell line; assay: HTRF phospho-AKT(S473) cell assay in SKBR3 cells; type: cell-based, human; settings: Homo sapiens, SK-BR-3; SKBR3 (PI3Kα-Wild Type) cells, HTRF phospho-AKT(S473), 2 hours compound incubation, PDGF-BB stimulated
In short: as §1

Structure (SMILES)	IC50 [1]	IC50 [2]
Cc1cc([C@@H](C)Nc2ccc(Cl)nc2C(=O)NS(C)(=O)=O)c2nc(N3C[C@@H]4[C@H](C3)[C@H]4n3ccc(C)n3)n(C)c(=O)c2c1 [Compound 416, 6-chloro-3-(((R)-1-(3,6-dimethyl-2-((1R,5S,6S)-6-(3-methyl-1H-pyrazol-1-yl)-3-azabicyclo[3.1.0]hexan-3-yl)-4-oxo-3,4-dihydroquinazolin-8-yl)ethyl)amino)-N-(methylsulfonyl) picolinamide]	< 250 nM	1 to 5 µM
Cc1cc([C@@H](C)Nc2ccc(Cl)nc2C(=O)NS(C)(=O)=O)c2nc(N3C[C@@H]4[C@H](C3)[C@H]4n3nccc3C)n(C)c(=O)c2c1 [Compound 417, 6-chloro-3-(((R)-1-(3,6-dimethyl-2-((1R,5S,6S)-6-(5-methyl-1H-pyrazol-1-yl)-3-azabicyclo[3.1.0]hexan-3-yl)-4-oxo-3,4-dihydroquinazolin-8-yl)ethyl)amino)-N-(methylsulfonyl) picolinamide]	< 250 nM	1 to 5 µM
Cc1cc([C@@H](C)Nc2ccc(Cl)nc2C(=O)NS(C)(=O)=O)c2nc(N3C[C@@H]4[C@H](C3)[C@H]4c3cncc(C)n3)n(C)c(=O)c2c1 [Compound 418, 6-chloro-3-(((R)-1-(3,6-dimethyl-2-((1R,5S,6R)-6-(6-methylpyrazin-2-yl)-3-azabicyclo[3.1.0]hexan-3-yl)-4-oxo-3,4-dihydroquinazolin-8-yl)ethyl)amino)-N-(methylsulfonyl) picolinamide]	< 250 nM	1 to 5 µM
Cc1cc([C@@H](C)Nc2ccc(Cl)nc2C(=O)NS(C)(=O)=O)c2nc(N3C[C@@H]4[C@H](C3)[C@H]4c3ccn(C)n3)n(C3CC3)c(=O)c2c1 [Compound 419, 6-chloro-3-(((R)-1-(3-cyclopropyl-6-methyl-2-((1R,5S,6R)-6-(1-methyl-1H-pyrazol-3-yl)-3-azabicyclo[3.1.0]hexan-3-yl)-4-oxo-3,4-dihydroquinazolin-8-yl)ethyl)amino)-N-(methylsulfonyl) picolinamide]	250 to 500 nM	1 to 5 µM
Cc1cc([C@@H](C)Nc2ccc(Cl)nc2C(=O)NS(C)(=O)=O)c2nc(N3CCC(c4n[nH]cc4F)CC3)n(C)c(=O)c2c1 [Compound 420, (R)-6-chloro-3-((1-(2-(4-(4-fluoro-1H-pyrazol-3-yl)piperidin-1-yl)-3,6-dimethyl-4-oxo-3,4-dihydroquinazolin-8-yl)ethyl)amino)-N-(methylsulfonyl) picolinamide]	250 to 500 nM	1 to 5 µM
Cc1cc([C@@H](C)Nc2ccc(Cl)nc2C(=O)NS(C)(=O)=O)c2nc(N3CCC(c4nn(C)c(C)c4F)CC3)n(C)c(=O)c2c1 [Compound 421, (R)-6-chloro-3-((1-(2-(4-(4-fluoro-1,5-dimethyl-1H-pyrazol-3-yl)piperidin-1-yl)-3,6-dimethyl-4-oxo-3,4-dihydroquinazolin-8-yl)ethyl)amino)-N-(methylsulfonyl) picolinamide]	250 to 500 nM	≥ 5 µM
Cc1cc([C@@H](C)Nc2ccc(Cl)nc2C(=O)NS(C)(=O)=O)c2nc(N3CCC(c4cnc(C)c(F)c4)CC3)n(C)c(=O)c2c1 [Compound 422, (R)-6-chloro-3-((1-(2-(4-(5-fluoro-6-methylpyridin-3-yl)piperidin-1-yl)-3,6-dimethyl-4-oxo-3,4-dihydroquinazolin-8-yl)ethyl)amino)-N-(methylsulfonyl) picolinamide]	< 250 nM	1 to 5 µM
Cc1cc([C@@H](C)Nc2ccc(Cl)nc2C(=O)NS(C)(=O)=O)c2nc(N3C[C@@H]4[C@H](C3)[C@H]4c3cnc(C)c(F)c3)n(C)c(=O)c2c1 [Compound 423, 6-chloro-3-(((R)-1-(2-((1R,5S,6S)-6-(5-fluoro-6-methylpyridin-3-yl)-3-azabicyclo[3.1.0]hexan-3-yl)-3,6-dimethyl-4-oxo-3,4-dihydroquinazolin-8-yl)ethyl)amino)-N-(methylsulfonyl) picolinamide]	250 to 500 nM	≥ 5 µM
Cc1cc([C@@H](C)Nc2ccc(Cl)nc2C(=O)NS(C)(=O)=O)c2nc(N3C[C@@H]4[C@H](C3)[C@H]4c3c(F)cnn3C)n(C)c(=O)c2c1 [Compound 424, 6-chloro-3-(((R)-1-(2-((1R,5S,6R)-6-(4-fluoro-1-methyl-1H-pyrazol-5-yl)-3-azabicyclo[3.1.0]hexan-3-yl)-3,6-dimethyl-4-oxo-3,4-dihydroquinazolin-8-yl)ethyl)amino)-N-(methylsulfonyl) picolinamide]	250 to 500 nM	≥ 5 µM
Cc1cc([C@@H](C)Nc2ccc(Cl)nc2C(=O)NS(C)(=O)=O)c2nc(N3CCC(c4c(C)cnn4C)CC3)n(C)c(=O)c2c1 [Compound 427, (R)-6-chloro-3-((1-(2-(4-(1,4-dimethyl-1H-pyrazol-5-yl)piperidin-1-yl)-3,6-dimethyl-4-oxo-3,4-dihydroquinazolin-8-yl)ethyl)amino)-N-(methylsulfonyl) picolinamide]	< 250 nM	1 to 5 µM
Cc1cc([C@@H](C)Nc2ccc(Cl)nc2C(=O)NS(C)(=O)=O)c2nc(N3CCC(c4cnc(C(F)F)cn4)CC3)n(C)c(=O)c2c1 [Compound 428, (R)-6-chloro-3-((1-(2-(4-(5-(difluoromethyl)pyrazin-2-yl)piperidin-1-yl)-3,6-dimethyl-4-oxo-3,4-dihydroquinazolin-8-yl)ethyl)amino)-N-(methylsulfonyl) picolinamide]	250 to 500 nM	1 to 5 µM
Cc1cc([C@@H](C)Nc2ccc(Cl)nc2C(=O)NS(C)(=O)=O)c2nc(C3CCN(c4nn(C)cc4F)CC3)n(C)c(=O)c2c1 [Compound 429, (R)-6-chloro-3-((1-(2-(1-(4-fluoro-1-methyl-1H-pyrazol-3-yl)piperidin-4-yl)-3,6-dimethyl-4-oxo-3,4-dihydroquinazolin-8-yl)ethyl)amino)-N-(methylsulfonyl) picolinamide]	250 to 500 nM	≥ 5 µM
Cc1cc([C@@H](C)Nc2ccc(Cl)nc2C(=O)NS(C)(=O)=O)c2nc(N3C[C@@H]4[C@H](C3)[C@H]4c3cn(C)nc3C)n(C)c(=O)c2c1 [Compound 430, 6-chloro-3-(((R)-1-(2-((1R,5S,6S)-6-(1,3-dimethyl-1H-pyrazol-4-yl)-3-azabicyclo[3.1.0]hexan-3-yl)-3,6-dimethyl-4-oxo-3,4-dihydroquinazolin-8-yl)ethyl)amino)-N-(methylsulfonyl) picolinamide]	< 250 nM	1 to 5 µM
C[C@@H](Nc1ccc(Cl)nc1C(=O)NS(C)(=O)=O)c1cc(Cl)cc2c(=O)n(C)c(N3CCC(c4nn(C)cc4F)CC3)nc12 [Compound 431, (R)-6-chloro-3-((1-(6-chloro-2-(4-(4-fluoro-1-methyl-1H-pyrazol-3-yl)piperidin-1-yl)-3-methyl-4-oxo-3,4-dihydroquinazolin-8-yl)ethyl)amino)-N-(methylsulfonyl) picolinamide]	250 to 500 nM	1 to 5 µM
CCn1c(N2C[C@@H]3[C@H](C2)[C@H]3c2ccn(C)n2)nc2c([C@@H](C)Nc3ccc(Cl)nc3C(=O)NS(C)(=O)=O)cc(C)cc2c1=O [Compound 432, 6-chloro-3-(((R)-1-(3-ethyl-6-methyl-2-((1R,5S,6R)-6-(1-methyl-1H-pyrazol-3-yl)-3-azabicyclo[3.1.0]hexan-3-yl)-4-oxo-3,4-dihydroquinazolin-8-yl)ethyl)amino)-N-(methylsulfonyl) picolinamide]	< 250 nM	1 to 5 µM
CCn1c(N2CCC(c3nn(C)cc3F)CC2)nc2c([C@@H](C)Nc3ccc(Cl)nc3C(=O)NS(C)(=O)=O)cc(C)cc2c1=O [Compound 433, (R)-6-chloro-3-((1-(3-ethyl-2-(4-(4-fluoro-1-methyl-1H-pyrazol-3-yl)piperidin-1-yl)-6-methyl-4-oxo-3,4-dihydroquinazolin-8-yl)ethyl)amino)-N-(methylsulfonyl) picolinamide]	< 250 nM	≥ 5 µM
Cc1cc([C@@H](C)Nc2ccc(Cl)nc2C(=O)NS(C)(=O)=O)c2nc(N3CCC(c4nc(C(F)F)n(C)n4)CC3)n(C)c(=O)c2c1 [Compound 434, (R)-6-chloro-3-((1-(2-(4-(5-(difluoromethyl)-1-methyl-1H-1,2,4-triazol-3-yl)piperidin-1-yl)-3,6-dimethyl-4-oxo-3,4-dihydroquinazolin-8-yl)ethyl)amino)-N-(methylsulfonyl) picolinamide]	500 to 1000 nM	≥ 5 µM
Cc1cc([C@@H](C)Nc2ccc(Cl)nc2C(=O)NS(C)(=O)=O)c2nc(N3C[C@@H]4[C@H](C3)[C@H]4c3cc(C)n(C)n3)n(C)c(=O)c2c1 [Compound 435, 6-chloro-3-(((R)-1-(2-((1R,5S,6R)-6-(1,5-dimethyl-1H-pyrazol-3-yl)-3-azabicyclo[3.1.0]hexan-3-yl)-3,6-dimethyl-4-oxo-3,4-dihydroquinazolin-8-yl)ethyl)amino)-N-(methylsulfonyl) picolinamide]	< 250 nM	1 to 5 µM
Cc1cc([C@@H](C)Nc2ccc(Cl)nc2C(=O)NS(C)(=O)=O)c2nc(N3CCC(c4cc(F)cnc4C)CC3)n(C)c(=O)c2c1 [Compound 436, (R)-6-chloro-3-((1-(2-(4-(5-fluoro-2-methylpyridin-3-yl)piperidin-1-yl)-3,6-dimethyl-4-oxo-3,4-dihydroquinazolin-8-yl)ethyl)amino)-N-(methylsulfonyl) picolinamide]	< 250 nM	1 to 5 µM
Cc1cc([C@@H](C)Nc2ccc(Cl)nc2C(=O)NS(C)(=O)=O)c2nc(N3CCC(c4cccnc4C)CC3)n(C)c(=O)c2c1 [Compound 437, (R)-6-chloro-3-((1-(3,6-dimethyl-2-(4-(2-methylpyridin-3-yl)piperidin-1-yl)-4-oxo-3,4-dihydroquinazolin-8-yl)ethyl)amino)-N-(methylsulfonyl) picolinamide]	< 250 nM	1 to 5 µM

— patent US12281122B1, “PI3K inhibitors” (Cogent Biosciences, Inc., priority 2023, dated 2025)
